# Experimental data published in article PMC12040169 (PLOS Biology, 2025).
# Test: in vitro
# Details: human, hela cells, % viability
row,SMILES,"viability at 28.5 h, 10 µM [%]"
1,CC(=O)N1c2ccc(-c3cn4ccc(C)cc4n3)cc2CC1C (stereo not shown) [CBK285191],79.2
2,Cc1cccc2cc3c(nc12)OCCN(C)C3 [CBK285192],89.1
3,CC(=O)N1c2ccc(-c3cn4cc(C)ccc4n3)cc2CC1C (stereo not shown) [CBK285195],82.5
4,Cc1cccc2cnc(C3CCN(C(=O)c4cnn(C)c4C)CC3)cc12 [CBK285196],88.2
5,Cc1cccc2cnc(C3CCN(C(=O)CCc4ccno4)CC3)cc12 [CBK285197],81
6,COCC(=O)N1CCC(c2nc(C)n3c(C)csc23)CC1 [CBK285198],96.7
7,Cc1nc(C2CCCN(C(=O)c3ccncc3)C2)c2sccn12 (stereo not shown) [CBK285199],90.8
8,CCOC(=O)Cn1ccc2ccnc(-c3cccs3)c21 [CBK285200],107
9,Cc1nc(C2CCN(C(=O)c3ccn(C)n3)CC2)c2sccn12 [CBK285202],93.4
10,Cc1nc(C2CCN(C(=O)c3ccnn3C)CC2)c2sccn12 [CBK285203],90.3
11,OC1(c2cccnc2)C2CCCC1CN(Cc1ccc(F)cc1)C2 (stereo not shown) [CBK285204],89.8
12,Cc1n[nH]c(C)c1CC(=O)NC(Cc1cccs1)c1ccccn1 (stereo not shown) [CBK285208],111
13,Cn1cc(C(=O)NC(Cc2cccs2)c2ccccn2)ccc1=O (stereo not shown) [CBK285209],112
14,Cc1noc(C)c1C(=O)N1CCCC(c2nc(C)n3ccsc23)C1 (stereo not shown) [CBK285211],103
15,Cc1csc2c(C3CCCN(C(=O)C4CC4)C3)nc(C)n12 (stereo not shown) [CBK285212],87.1
16,Cc1csc2c(C3CCCN(C(=O)c4ccncc4)C3)nc(C)n12 (stereo not shown) [CBK285213],100
17,COCC(=O)N1CCCC(c2nc(C)n3c(C)csc23)C1 (stereo not shown) [CBK285214],98.7
18,Cc1csc2c(C3CCCN(C(=O)c4ccnn4C)C3)nc(C)n12 (stereo not shown) [CBK285215],96.9
19,CCNC(=O)C1(Cc2ccccc2-c2ccncc2)CCOCC1 [CBK285216],100
20,C=CCNC(=O)C1(Cc2ccccc2-c2cccnc2)CCOCC1 [CBK285217],109
21,CCNC(=O)C1(Cc2ccccc2-c2cccnc2)CCOCC1 [CBK285218],103

row,SMILES,"viability at 28.5 h, 10 µM [%]"
1,Cn1ccnc1C1(O)C2CCCC1CN(CC1CCCCC1)C2 (stereo not shown) [CBK285220],91.5
2,Cn1nc(C(Cc2ccccc2)NC(=O)c2ccco2)c2cccnc21 (stereo not shown) [CBK285223],97.1
3,CC(=O)N1CCc2cc(-c3cc4c(C)cccn4c3)ccc21 [CBK285225],96
4,CC1Cc2cc(-c3cc4ccccn4c3)ccc2N1S(C)(=O)=O (stereo not shown) [CBK285227],90.3
5,Cc1nc(C2CCCN(C(=O)CCn3cccn3)C2)c2sccn12 (stereo not shown) [CBK285234],86.7
6,Cc1nc(C2CCCN(C(=O)c3cnn(C)c3)C2)c2sccn12 (stereo not shown) [CBK285236],81.4
7,Cc1nc(C2CCCN(C(=O)CCc3ccno3)C2)c2sccn12 (stereo not shown) [CBK285237],87.5
8,Cc1noc(C)c1C(=O)N1CCC(c2nc(C)n3ccsc23)CC1 [CBK285239],101
9,Cc1csc2c(C3CCN(C(=O)C4CC4)CC3)nc(C)n12 [CBK285241],88.8
10,Cc1csc2c(C3CCN(C(=O)c4ccccn4)CC3)nc(C)n12 [CBK285244],77.4
11,Cc1csc2c(C3CCN(C(=O)c4cc[nH]n4)CC3)nc(C)n12 [CBK285245],91.9
12,Cc1csc2c(C3CCN(C(=O)c4cscn4)CC3)nc(C)n12 [CBK285246],80.2
13,Cc1csc2c(C3CCN(C(=O)c4ccn(C)n4)CC3)nc(C)n12 [CBK285248],105
14,Cc1csc2c(C3CCN(C(=O)c4cnn(C)c4)CC3)nc(C)n12 [CBK285250],89.7
15,C=CCS(=O)(=O)N1CCC(c2nc(C)n3c(C)csc23)CC1 [CBK285251],80
16,Cc1ccn2cc(-c3ccc4c(c3)CCN4S(C)(=O)=O)cc2c1 [CBK285252],83.8
17,CC(=O)N1c2ccc(-c3cc4ccccn4c3)cc2CC1C (stereo not shown) [CBK285254],79.9
18,Cn1ncc2c1CCCN(C(=O)COc1cccc(F)c1)C2 [CBK285257],96.9
19,CC(=O)Nc1cc2ccccc2nc1C1CCN(C(=O)C(C)C)CC1 [CBK285259],83.7
20,COc1ccc([C@@]2(O)CC[C@@H]3CN(C(=O)C4CCCC4)C[C@@H]32)cc1 [CBK285260],85
21,CC(C)NC(=O)C1CC2CCC1(C)CC21NC(=O)c2ccccc2O1 (stereo not shown) [CBK285261],92

row,SMILES,"viability at 28.5 h, 10 µM [%]"
1,O=C(c1ccccc1F)N1CC2CCCC(C1)C2N1CCOCC1 (stereo not shown) [CBK285262],79.9
2,O=C(NC1CC1)[C@H]1CN(Cc2ccccc2)C[C@@H]1C(=O)c1ccccc1 [CBK285264],105
3,Cc1ccc(-c2cc(C3CCN(C(=O)c4cnn(C)c4)C3)[nH]n2)cc1 (stereo not shown) [CBK285266],85.4
4,CC(C)CC(=O)N1C[C@H]2CCCN(Cc3ccccn3)[C@H]2C1 [CBK285269],86.6
5,Cc1cc(C)cc(OC(C)C(=O)N2CCCc3c(cnn3C)C2)c1 (stereo not shown) [CBK285270],82.1
6,Cc1n[nH]c(C)c1CC(=O)NC(Cc1ccsc1)c1ccccn1 (stereo not shown) [CBK285271],105
7,O=C(NC(Cc1ccsc1)c1ccccn1)c1ccc(=O)[nH]c1 (stereo not shown) [CBK285272],106
8,CCOc1ccc(CCC(=O)N2CCCc3c(cnn3C)C2)cc1 [CBK285276],85.8
9,C[C@]12C(=O)c3ccccc3NC(=O)C1[C@H]2C(=O)N1CCCCC1 (stereo partly shown) [CBK285281],92
10,CC(=O)N1C[C@H]2CCCN(S(=O)(=O)c3ccc(F)cc3)[C@H]2C1 [CBK285283],88.8
11,O=C(Cn1cccn1)NC(Cc1ccsc1)c1ccccn1 (stereo not shown) [CBK285284],92.8
12,CC(C)c1ccccc1OCC(=O)N1CCCc2c(cnn2C)C1 [CBK285287],111
13,CC(C)CC(=O)N1C[C@H]2CCCN(Cc3ccsc3)[C@H]2C1 [CBK285290],102
14,CC(C)(C)NC(=O)[C@@H]1CNC[C@]12Cc1ccccc1C(=O)N2 [CBK285294],103
15,Cc1ccc([C@@]2(O)CC[C@@H]3CN(S(=O)(=O)C(C)C)C[C@@H]32)cc1 [CBK285297],97.8
16,Cn1cc(C2CCCCCN2C(=O)c2cc(C3CC3)on2)cn1 (stereo not shown) [CBK285301],104
17,Cc1c(C(=O)N2CCCC(c3cnccn3)C2)oc2c(F)cccc12 (stereo not shown) [CBK285302],96.3
18,Cc1noc2nc(C3CCN(C(=O)C4CC4)CC3)cc(C(F)F)c12 [CBK285306],95.8
19,Cc1noc2nc(C3CCN(C(=O)C4CC4C)CC3)cc(C(F)F)c12 (stereo not shown) [CBK285307],93
20,O=C1NC2(CCc3ccccc31)CCN(C(=O)c1ccc(F)cc1)C2 (stereo not shown) [CBK285308],102
21,c1csc(-c2nnc(C3CCN(Cc4ccsc4)CC3)o2)c1 [CBK285309],102

row,SMILES,"viability at 28.5 h, 10 µM [%]"
1,CC(C)(C)C(=O)N1CCC(c2nnc3n2CCCCC3)CC1 [CBK285311],88.7
2,Cc1ccc(C(=O)N2C[C@H]3NC(=O)c4ccccc4C(=O)[C@@]3(C)C2)cc1 [CBK285315],87.6
3,Cc1ccccc1C(=O)N1C[C@H]2NC(=O)c3ccccc3C(=O)[C@@]2(C)C1 [CBK285316],99.7
4,O=C(NCCc1c[nH]c2cccc(C3(O)CCCC3)c12)C1CC1 [CBK285319],82.3
5,Cn1cc([C@@H]2CN(Cc3cccs3)C[C@H]2N)c2ccncc21 [CBK285320],98.9
6,O=C(NC1CCN(CC2(c3ccccc3)CC2)CC1)c1ccco1 [CBK285321],83.7
7,O=C(NC1CCN(CC2(c3ccccc3)CC2)CC1)C1CCC1 [CBK285322],98.9
8,COc1ccc(CCC(=O)N2CCCc3c(cnn3C)C2)cc1 [CBK285326],111
9,CN(C)CC1CN(C(=O)Cc2ccccc2F)Cc2ccccc2O1 (stereo not shown) [CBK285327],90.4
10,OCC1CCCN(Cc2c(C3CCCC3)[nH]c3ncccc23)C1 (stereo not shown) [CBK285332],96.1
11,CC(=O)N1CCCN(Cc2c(C(C)C)[nH]c3ncccc23)CC1 [CBK285333],103
12,CN1CCN(Cc2c(C(C)(C)C)[nH]c3ncccc23)CC1 [CBK285334],104
13,CN1CCN(Cc2c(-c3ccc(F)cc3)[nH]c3ncccc23)CC1 [CBK285335],85.4
14,c1cnc2[nH]c(C3CCCC3)c(CN3CCOCC3)c2c1 [CBK285337],77.5
15,CC(=O)N1CCN(Cc2c(C3CCCC3)[nH]c3ncccc23)CC1 [CBK285339],80
16,CC(C)(C)c1[nH]c2ncccc2c1CN1CCSCC1 [CBK285340],93.6
17,CCN1CCN(Cc2c(C(C)(C)C)[nH]c3ncccc23)CC1 [CBK285341],106
18,CC(C)(C)c1[nH]c2ncccc2c1CN1CCCC(CO)C1 (stereo not shown) [CBK285342],99.1
19,O=C1NCCCC12CCN(Cc1cccs1)CC2 [CBK285346],85.2
